Source: the NIST ThermoML archive (doi:10.1016/j.jct.2016.10.047)
Numbers after ± are expanded uncertainties.

Assay: heat capacity at constant pressure per volume; xn = mol fraction of the nth substance listed
Settings: 102.6 kPa, Liquid, DSC, x1 = 0.08

CCCCCCCC[n+]1ccn(C)c1.F[P-](F)(F)(F)(F)F [1-octyl-3-methylimidazolium hexafluorophosphate] + CC(C)O
heat capacity (306.1 K): 2358000 ± 99000 J/K/m3
heat capacity (306.31 K): 2360000 ± 99000 J/K/m3
heat capacity (306.53 K): 2376000 ± 100000 J/K/m3
heat capacity (306.74 K): 2371000 ± 100000 J/K/m3
heat capacity (306.95 K): 2378000 ± 100000 J/K/m3
heat capacity (307.16 K): 2393000 ± 100000 J/K/m3
heat capacity (307.38 K): 2371000 ± 100000 J/K/m3
heat capacity (307.59 K): 2387000 ± 100000 J/K/m3
heat capacity (307.8 K): 2406000 ± 100000 J/K/m3
heat capacity (308.01 K): 2407000 ± 100000 J/K/m3
heat capacity (308.23 K): 2403000 ± 100000 J/K/m3
heat capacity (308.44 K): 2417000 ± 100000 J/K/m3
heat capacity (308.65 K): 2426000 ± 100000 J/K/m3
heat capacity (308.86 K): 2437000 ± 100000 J/K/m3
heat capacity (309.07 K): 2429000 ± 100000 J/K/m3
heat capacity (309.29 K): 2462000 ± 100000 J/K/m3
heat capacity (309.5 K): 2458000 ± 100000 J/K/m3
heat capacity (309.71 K): 2492000 ± 110000 J/K/m3
heat capacity (309.92 K): 2498000 ± 110000 J/K/m3
heat capacity (310.14 K): 2474000 ± 100000 J/K/m3
heat capacity (310.35 K): 2486000 ± 110000 J/K/m3
heat capacity (310.56 K): 2543000 ± 110000 J/K/m3
heat capacity (310.77 K): 2578000 ± 120000 J/K/m3
heat capacity (310.99 K): 2348000 ± 120000 J/K/m3
heat capacity (311.2 K): 2313000 ± 95000 J/K/m3
heat capacity (311.41 K): 2300000 ± 94000 J/K/m3
heat capacity (311.62 K): 2301000 ± 94000 J/K/m3
heat capacity (311.83 K): 2289000 ± 94000 J/K/m3
heat capacity (312.05 K): 2291000 ± 94000 J/K/m3
heat capacity (312.26 K): 2283000 ± 93000 J/K/m3
heat capacity (312.47 K): 2282000 ± 93000 J/K/m3
heat capacity (312.68 K): 2283000 ± 93000 J/K/m3
heat capacity (312.89 K): 2268000 ± 92000 J/K/m3
heat capacity (313.11 K): 2279000 ± 93000 J/K/m3
heat capacity (313.32 K): 2266000 ± 92000 J/K/m3
heat capacity (313.53 K): 2277000 ± 93000 J/K/m3
heat capacity (313.74 K): 2270000 ± 93000 J/K/m3
heat capacity (313.96 K): 2249000 ± 91000 J/K/m3
heat capacity (314.17 K): 2265000 ± 92000 J/K/m3
heat capacity (314.38 K): 2249000 ± 91000 J/K/m3
heat capacity (314.59 K): 2263000 ± 92000 J/K/m3
heat capacity (314.81 K): 2253000 ± 91000 J/K/m3
heat capacity (315.02 K): 2254000 ± 91000 J/K/m3
heat capacity (315.23 K): 2257000 ± 91000 J/K/m3
heat capacity (315.44 K): 2255000 ± 91000 J/K/m3
heat capacity (315.65 K): 2262000 ± 91000 J/K/m3
heat capacity (315.87 K): 2264000 ± 91000 J/K/m3
heat capacity (316.08 K): 2265000 ± 91000 J/K/m3
heat capacity (316.29 K): 2248000 ± 91000 J/K/m3
heat capacity (316.5 K): 2255000 ± 91000 J/K/m3
heat capacity (316.72 K): 2243000 ± 91000 J/K/m3
heat capacity (316.93 K): 2245000 ± 91000 J/K/m3
heat capacity (317.14 K): 2256000 ± 91000 J/K/m3
heat capacity (317.35 K): 2241000 ± 91000 J/K/m3
heat capacity (317.57 K): 2246000 ± 91000 J/K/m3
heat capacity (317.78 K): 2253000 ± 91000 J/K/m3
heat capacity (317.99 K): 2242000 ± 91000 J/K/m3
heat capacity (318.2 K): 2249000 ± 91000 J/K/m3
heat capacity (318.42 K): 2245000 ± 91000 J/K/m3
heat capacity (318.63 K): 2234000 ± 89000 J/K/m3
heat capacity (318.84 K): 2249000 ± 91000 J/K/m3
heat capacity (319.3 K): 2241000 ± 88000 J/K/m3
heat capacity (319.64 K): 2242000 ± 88000 J/K/m3
heat capacity (319.98 K): 2241000 ± 88000 J/K/m3
heat capacity (320.31 K): 2240000 ± 88000 J/K/m3
heat capacity (320.65 K): 2241000 ± 88000 J/K/m3
heat capacity (320.99 K): 2241000 ± 88000 J/K/m3
heat capacity (321.33 K): 2240000 ± 88000 J/K/m3
heat capacity (321.67 K): 2240000 ± 88000 J/K/m3
heat capacity (322 K): 2240000 ± 88000 J/K/m3
heat capacity (322.34 K): 2241000 ± 88000 J/K/m3
heat capacity (322.68 K): 2240000 ± 88000 J/K/m3
heat capacity (323.02 K): 2240000 ± 88000 J/K/m3
heat capacity (323.36 K): 2240000 ± 88000 J/K/m3
heat capacity (323.69 K): 2240000 ± 88000 J/K/m3
heat capacity (324.03 K): 2239000 ± 87000 J/K/m3
heat capacity (324.37 K): 2239000 ± 87000 J/K/m3
heat capacity (324.71 K): 2239000 ± 87000 J/K/m3
heat capacity (325.05 K): 2240000 ± 87000 J/K/m3
heat capacity (325.38 K): 2240000 ± 87000 J/K/m3
heat capacity (325.72 K): 2238000 ± 87000 J/K/m3
heat capacity (326.06 K): 2239000 ± 87000 J/K/m3
heat capacity (326.4 K): 2239000 ± 87000 J/K/m3
heat capacity (326.74 K): 2240000 ± 87000 J/K/m3
heat capacity (327.07 K): 2239000 ± 87000 J/K/m3
heat capacity (327.41 K): 2241000 ± 87000 J/K/m3
heat capacity (327.75 K): 2240000 ± 87000 J/K/m3
heat capacity (328.09 K): 2239000 ± 87000 J/K/m3
heat capacity (328.43 K): 2240000 ± 87000 J/K/m3
heat capacity (328.76 K): 2240000 ± 87000 J/K/m3
heat capacity (329.1 K): 2240000 ± 87000 J/K/m3
heat capacity (329.44 K): 2240000 ± 87000 J/K/m3
heat capacity (329.78 K): 2240000 ± 87000 J/K/m3
heat capacity (330.12 K): 2240000 ± 87000 J/K/m3
heat capacity (330.46 K): 2241000 ± 87000 J/K/m3
heat capacity (330.79 K): 2241000 ± 87000 J/K/m3
heat capacity (331.13 K): 2237000 ± 87000 J/K/m3
heat capacity (331.47 K): 2242000 ± 87000 J/K/m3
heat capacity (331.81 K): 2239000 ± 87000 J/K/m3
heat capacity (332.15 K): 2241000 ± 87000 J/K/m3
heat capacity (332.48 K): 2241000 ± 87000 J/K/m3
heat capacity (332.82 K): 2240000 ± 87000 J/K/m3
heat capacity (333.16 K): 2239000 ± 87000 J/K/m3
heat capacity (333.5 K): 2240000 ± 87000 J/K/m3
heat capacity (333.84 K): 2241000 ± 87000 J/K/m3
heat capacity (334.17 K): 2241000 ± 87000 J/K/m3
heat capacity (334.51 K): 2241000 ± 87000 J/K/m3
heat capacity (334.85 K): 2240000 ± 87000 J/K/m3
heat capacity (335.19 K): 2243000 ± 87000 J/K/m3
heat capacity (335.53 K): 2243000 ± 87000 J/K/m3
heat capacity (335.86 K): 2242000 ± 87000 J/K/m3
heat capacity (336.2 K): 2244000 ± 87000 J/K/m3
heat capacity (336.54 K): 2243000 ± 87000 J/K/m3
heat capacity (336.88 K): 2246000 ± 87000 J/K/m3
heat capacity (337.22 K): 2247000 ± 87000 J/K/m3
heat capacity (337.56 K): 2248000 ± 87000 J/K/m3
heat capacity (337.89 K): 2251000 ± 87000 J/K/m3
heat capacity (338.23 K): 2251000 ± 87000 J/K/m3
heat capacity (338.57 K): 2254000 ± 87000 J/K/m3
heat capacity (338.91 K): 2241000 ± 87000 J/K/m3
